For series [1], the system named is T cells engineered with drug-inducible ACP (NS3/NS4 protease cleavage site). Nature of the series: In vivo regulated armoring: plasma hIL-12 (Luminex) and circulating human T cells (flow cytometry). The arrangement: species or system NSG mice. The note with it: 25 mg/kg Grz IP, BID; T cells with SB01845 & SB02357. How it is done: Negative controls were untransduced T cells. […] Dosing: Drug treated mice received 25 mg/kg Grz at each dosing time point; vehicle treated mice received equivalent volume of vehicle; all Grz dosing administered IP. Dosing continued BID on days 2-4. […] Mice were bled on day 4 and sacrificed/bled on day 5.
A general note: In flow cytometry, cells or beads pass a laser one at a time.

The next series deals with target cells. The series can be described thus: T cell killing assay (LDH release). The class given is cell-based. The note with it: +/- 2 μM GRZ for 48 hours. How it is done:
For T cell killing assays, on Day 0 T cells were seeded at 1e6/mL+/−2 μM of GRZ for 48 hours to induce payload. On Day 2, target cells were counted and 35K were seeded per well in a 96 well plate for 4-6 hrs in target cell media. Then target cell media was removed and T cells were counted and 35K CAR normalized T cells were seeded [E:T— 1:1] in 200 µl of Optimizer media overnight. On Day 3, cells were transferred to a V-bottom plate, spun down, and supernatant harvested to determine killing activity using an LDH assay (CyQUANT LDH Cytotoxicity Assay; Life Technologies).
Background: LDH leaks from cells whose membrane has failed.

Series [2] concerns T cells engineered with drug-inducible ACP (inducible IL-12). The series is classed as in vivo. As to conditions: for Human T cells in the blood (hCD3+: hCD45+): inducible IL-12 T cells, individual mice. The protocol:
Negative controls were untransduced T cells. […] All Grz dosing was administered IP.
A first series of Grazoprevir (Grz) dosing regimens were assessed, as described in Table 25.

Series [3] shares this test system.
Procedure: Grazoprevir potassium salt was dissolved sequentially in DMSO, PEG400, and PBS to reach 10 mg/mL. All Grz dosing was administered IP. 20e6 T cells per mouse were injected by tail vein injection, as indicated. Luminex assay was run to assess levels of hIL-12 in mouse plasma. Presence of human T cells in mouse blood was analyzed by flow cytometry.
Following the results of the experiments above, animals were dosed (IP) 60 mg/kg for 3 days once a day. Recombinant (hIL-2 1×10^4 IU) was also administered as indicated.
In another series the target is T1, ERT2 domain (Homo sapiens, UniProt P03372, G400V/L544A/M543A).
T1 construct: expressed in transfected cells; host or cells: CD4/CD8 T cells, virally transduced
T1 sequence (P03372 311-547 G400V/M543A/L544A limits assumed): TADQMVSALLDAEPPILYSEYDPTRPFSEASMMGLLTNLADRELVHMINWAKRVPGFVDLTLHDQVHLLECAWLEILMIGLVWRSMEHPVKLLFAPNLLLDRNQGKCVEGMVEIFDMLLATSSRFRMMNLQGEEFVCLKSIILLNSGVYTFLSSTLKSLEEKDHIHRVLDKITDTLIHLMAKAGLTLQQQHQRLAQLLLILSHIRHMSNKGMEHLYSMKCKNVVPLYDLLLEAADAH
Nature of the series: Tamoxifen (ERT2) regulatable TF reporter and CAR expression in T cells (MFI). The note with it: T cells with ERT2 regulatable TF 565 and reporter alone (1066) or on construct also encoding a CAR (2235); 1, 0.25, 0.1 uM or no drug; Day 9 MFI. The class given is cell-based. The text has this:
Various regulatable TF (also referred to as an activation-conditional control polypeptide (ACP) for drug-inducible formats or “synTF”) and expression cassettes were constructed as shown in FIG. 17A. […] The cassettes were cloned into a viral vector and used to produce virus.
On Day 0, CD4/CD8 T cells (FL00711) were thawed and activated with Dynabeads (3:1) in complete T cell media (Optimizer+Supplements—Gibco+5% human serum)+IL-2 (100 Units/ml). On Day 2, cells were transduced with 1×10^5 GV of virus. […] Florescent median intensity (MFI) was assessed of Day 9.

Values joined by “and” are separate entries in the source; they are usually repeats but may differ in a detail not shown here. Identical values can stand only once. Like-named read-outs stand apart in the source and are kept apart here.

For `C=C[C@@H]1C[C@]1(NC(=O)[C@@H]1C[C@@H]2CN1C(=O)[C@H](C(C)(C)C)NC(=O)O[C@@H]1C[C@H]1CCCCCc1nc3ccc(OC)cc3nc1O2)C(=O)NS(=O)(=O)C1CC1.O` [grazoprevir], the “hIL-12 in the plasma of mice above vehicle” value in series [1] is on record as roughly 100 fold. Moreover, the “difference in killing in the presence or absence of grazoprevir” value with target cells was “No noticeable differences in killing”. Moreover, the “Human T cells in the blood (hCD3+: hCD45+)” value is 5.42 % of live cells and 0.08 % of live cells and 4.07 % of live cells and 3.61 % of live cells and 3.88 % of live cells and 5.91 % of live cells and 4.2 % of live cells and 3.14 % of live cells in series [2] (Day 4, 25 mg/kg BID Grz IP, 25 mg/kg); 4.09 % of live cells and 2.96 % of live cells and 3.7 % of live cells and 1.62 % of live cells and 4.16 % of live cells and 2.57 % of live cells and 4.55 % of live cells and 2.58 % of live cells in series [2] (Day 4, 50 mg/kg Grz IP, 50 mg/kg); 2.95 % of live cells and 3.14 % of live cells and 2.6 % of live cells and 0* % of live cells (2×) and 2.41 % of live cells and 1.43 % of live cells and 2.87 % of live cells in series [2] (Day 4, 75 mg/kg Grz IP, 75 mg/kg); 2.18 % of live cells and 6.98 % of live cells and 6.53 % of live cells and 13 % of live cells and 2.24 % of live cells and 4.72 % of live cells and 5.64 % of live cells and 7.89 % of live cells in series [2] (Day 4, 25 + 50 mg/kg Grz IP, 50 mg/kg); 6.78 % of live cells and 0.077 % of live cells and 3.63 % of live cells and 2.46 % of live cells and 2.07 % of live cells and 3.45 % of live cells and 2.27 % of live cells and 4.09 % of live cells in series [2] (Day 8, 25 mg/kg BID Grz IP, 25 mg/kg); 7.36 % of live cells and 10.9 % of live cells and 7.31 % of live cells and 8.1 % of live cells and 9.23 % of live cells and 5.88 % of live cells and 6.63 % of live cells and 7.34 % of live cells in series [2] (Day 8, 50 mg/kg Grz IP, 50 mg/kg). For the same molecule, the “Human T cells in the blood (hCD3+: hCD45+)” value in series [2] (Day 8, 75 mg/kg Grz IP, 75 mg/kg) is 8.19 % of live cells and 9.67 % of live cells and 6.55 % of live cells and 0.028 % of live cells and 11.6 % of live cells and 4.7e−003 % of live cells and 11 % of live cells and 3.79 % of live cells; in series [2] (Day 8, 25 + 50 mg/kg Grz IP, 50 mg/kg), 7.09 % of live cells and 7.85 % of live cells and 9 % of live cells and 12 % of live cells and 6.34 % of live cells and 7.02 % of live cells and 8.65 % of live cells and 5.04 % of live cells; in series [2] (Day 12, 25 mg/kg BID Grz IP, 25 mg/kg) it was 13.5 % of live cells and 0.21 % of live cells and 13.3 % of live cells and 9.36 % of live cells and 9.33 % of live cells and 14 % of live cells and 16.1 % of live cells and 13.8 % of live cells; in series [2] (Day 12, 25 + 50 mg/kg Grz IP, 50 mg/kg), 10.9 % of live cells and 12.2 % of live cells and 11.1 % of live cells and 16.3 % of live cells and 2.61 % of live cells and 9.13 % of live cells. Besides, the “serum IL-12 levels” value in series [2] (Day 8) is “returned to baseline”; in series [2] (Day 12) it was “remained stable”. Besides, the mice found dead in series [2] (Day 12) was 2 of 8. Also, the “mice that lost ~15% weight during the first week of dosing” value in series [3] (60 mg/kg IP, these mice received only 30 mg/kg on day 3) was 3 of 10. The “plasma IL-12” value in series [3] (Day 4, first on week) was “significant Grazoprevir dose dependent induction of IL-12”; in series [3] (Day 18, second on week), “further significant Grazoprevir dose dependent induction of IL-12”. In addition, the “injected human T cells in blood when Grz was administered” value in series [3] (Day 4, 60 mg/kg IP once a day for 3 days) is “significantly less”. In series [3] (Day 11, off week), the “plasma IL-12 levels between drug and no-drug groups” value is “equivalent”. In series [3] (Days 11, 18, and 25), the “injected human T cells in blood, inducible system groups with vs without Grz” value is given as “no difference”. Further, in series [3] (necropsy), the “organ findings at end time point” value was “pale kidneys, thick diaphragm, enlarged spleen, thick liver lobe, white/yellow lump growing inside the liver, and organs (liver, stomach, spleen) sticking with peritoneal wall and each other”. In addition, in series [3] (time course), the body weight result is “transient weight loss”.

As for `CC/C(=C(\c1ccccc1)c1ccc(OCCNC)cc1)c1ccccc1` [N-desmethyltamoxifen], the “reporter (mCherry) expression” value on ERT2 domain is “did not result expression of the reporter”.

These data come from patent US20230011052A1, “METHOD AND COMPOSITIONS FOR REGULATED ARMORING OF CELLS” (Senti Biosciences, Inc., priority 2019, published 2023).
